Measurements from US9198913B2, “Nitroimidazooxazines and their uses in anti-tubercular therapy” (priority 2009, dated 2015).
Converted amounts (≈) assume the structure as drawn.

What was measured:
[1] = In vivo pharmacokinetics in mice; settings: CD-1 mice, oral, 40 mg/kg; for Cmax / half-life / Kp: mouse; for Cmax / half-life: in vivo, plasma; for half-life: read-out: t½ (h) plasma (converted); for Kp: lung/plasma, read-out: AUC ratio (lung/plasma);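 for all read-outs here: plasma and lung samples quantified by LC-MS/MS, dosing as a suspension in aqueous carboxymethylcellulose with Tween 80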
[2] = Stability to human liver microsomes; type: in vitro ADME; settings: 1 μM, 37° C., 60 min, pooled human liver microsomes;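 note: parent compound quantified by LC-MS/MS against an internal standard, duplicates averaged, expressed relative to the 0 min sample taken as 100%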
[3] = Stability to mouse liver microsomes; type: in vitro ADME; settings: 1 μM, 37° C., 60 min, CD-1 mouse liver microsomes;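 note: analyte quantified by LC-MS/MS as ratio to internal standard peak area, mean of duplicates, 60 min value expressed relative to the 0 min level (100%)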
[4] = Water solubility (sonicated suspension, HPLC); type: physicochemical; settings: in water; for solubility at 15 min: thermodynamic from solid;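 for all read-outs here: concentration in the clear supernatant quantified by HPLC peak area against a DMSO standard solution of the same compound, corrected for dilution and injection volume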

Work on `O=[N+]([O-])c1cn2c(n1)OC[C@@H](OCc1ccc(-c3ccc(OC(F)(F)F)cc3)cc1)C2` [Compound 3, (6S)-2-Nitro-6-{[4′-(trifluoromethoxy)[1,1′-biphenyl]-4-yl]methoxy}-6,7-dihydro-5H-imidazo[2,1-b][1,3]oxazine] yielded an AUC lung [1] of 218 µg·h/mL and a melting point of 199 to 201 °C.

For `O=[N+]([O-])c1cn2c(n1)OC[C@@H](OCc1ccc(Cc3ccc(OC(F)(F)F)cc3)cc1)C2` [Compound 17, (6S)-2-Nitro-6-({4-[4-(trifluoromethoxy)benzyl]benzyl}oxy)-6,7-dihydro-5H-imidazo[2,1-b][1,3]oxazine], the “Microsomes (% remaining, 1 h) Human” value [2] was 85%, the melting point was 132 to 133 °C and the “Microsomes (% remaining, 1 h) Mouse” value [3] was 70%. For the same molecule, the solubility at 15 min [4] was 0.16 µg/mL (≈ 0.356 µM).

For `O=[N+]([O-])c1cn2c(n1)OC[C@@H](OCc1ccc(-c3ccc(C(F)(F)F)nc3)cc1F)C2` [Compound 23, (6S)-6-({2-Fluoro-4-[6-(trifluoromethyl)-3-pyridinyl]benzyl}oxy)-2-nitro-6,7-dihydro-5H-imidazo[2,1-b][1,3]oxazine], the AUC lung [1] was 55.4 µg·h/mL, the Cmax [1] was 1560 ng/mL and the half-life [1] was 4.9 h. The Kp [1] was 2.5, the “Microsomes (% remaining, 1 h) Human” value [2] was 96% and the melting point was 195 to 198 °C. For the same molecule, the “Microsomes (% remaining, 1 h) Mouse” value [3] was 78% and the solubility at 15 min [4] was 5.7 µg/mL (≈ 13 µM).

For `O=[N+]([O-])c1cn2c(n1)OC[C@@H](OCc1ccc(-c3ccc(F)cc3)nc1)C2` [Compound 5, (6S)-6-{[6-(4-Fluorophenyl)-3-pyridinyl]methoxy}-2-nitro-6,7-dihydro-5H-imidazo[2,1-b][1,3]oxazine], the AUC lung [1] was 136 µg·h/mL, the “Microsomes (% remaining, 1 h) Human” value [2] was 88% and the “Microsomes (% remaining, 1 h) Mouse” value [3] was 80%. The Solubility [4] was 3.8 µg/mL (≈ 10.3 µM).

With `O=[N+]([O-])c1cn2c(n1)OC[C@@H](OCc1cnc(-c3ccc(OC(F)(F)F)cc3)cn1)C2` [Compound 4, (6S)-2-Nitro-6-({5-[4-(trifluoromethoxy)phenyl]-2-pyrazinyl}methoxy)-6,7-dihydro-5H-imidazo[2,1-b][1,3]oxazine] the AUC lung [1] was >324 µg·h/mL, the “Microsomes (% remaining, 1 h) Human” value [2] was 98% and the melting point was 182 to 184 °C. For the same molecule, the Solubility [4] was 2.6 µg/mL (≈ 5.95 µM).

In the case of `O=[N+]([O-])c1cn2c(n1)OC[C@@H](OCc1ccc(C#Cc3ccc(OC(F)(F)F)cc3)nc1)C2` [Compound 33, (6S)-2-Nitro-6-[(6-{[4-(trifluoromethoxy)phenyl]ethynyl}-3-pyridinyl)methoxy]-6,7-dihydro-5H-imidazo[2,1-b][1,3]oxazine], the melting point is reported as 235 to 238 °C.

With `O=[N+]([O-])c1cn2c(n1)OC[C@@H](OCc1ccc(C#Cc3ccc(C(F)(F)F)nc3)cn1)C2` [Compound 25, (6S)-2-Nitro-6-[(5-{[6-(trifluoromethyl)-3-pyridinyl]ethynyl}-2-pyridinyl)methoxy]-6,7-dihydro-5H-imidazo[2,1-b][1,3]oxazine] the “Microsomes (% remaining, 1 h) Human” value [2] was 88%, the melting point was 226 to 227 °C and the “Microsomes (% remaining, 1 h) Mouse” value [3] was 91%.

Molecule `O=[N+]([O-])c1cn2c(n1)OC[C@@H](Oc1ccc(-c3ccc(OC(F)(F)F)cc3)cc1)C2` [Compound 13, (6S)-2-Nitro-6-{[4′-(trifluoromethoxy)[1,1′-biphenyl]-4-yl]oxy}-6,7-dihydro-5H-imidazo[2,1-b][1,3]oxazine] has an AUC lung [1] of 347 µg·h/mL, a half-life [1] of 38 h and a Kp [1] of 3.4. For the same molecule, the melting point was 210 °C and the solubility at 15 min [4] was 3 µg/mL (≈ 7.12 µM).

For `O=[N+]([O-])c1cn2c(n1)OC[C@@H](OCc1ncc(-c3ccc(OC(F)(F)F)cc3)cn1)C2` [Compound 29, (6S)-2-Nitro-6-({5-[4-(trifluoromethoxy)phenyl]-2-pyrimidinyl}methoxy)-6,7-dihydro-5H-imidazo[2,1-b][1,3]oxazine], the “Microsomes (% remaining, 1 h) Human” value [2] was 92%, the melting point was 223 to 226 °C and the “Microsomes (% remaining, 1 h) Mouse” value [3] was 87%. It also gave a Solubility [4] of 8.1 µg/mL (≈ 18.5 µM).

With `O=[N+]([O-])c1cn2c(n1)OC[C@@H](OCc1ccc(-c3ccc(OC(F)(F)F)c(F)c3)nc1)C2` [Compound 21, (6S)-6-({6-[3-Fluoro-4-(trifluoromethoxy)phenyl]-3-pyridinyl}methoxy)-2-nitro-6,7-dihydro-5H-imidazo[2,1-b][1,3]oxazine] the AUC lung [1] was 251 µg·h/mL, the half-life [1] was 13.9 h and the Kp [1] was 1.4. The “Microsomes (% remaining, 1 h) Human” value [2] was 100%, the “Microsomes (% remaining, 1 h) Mouse” value [3] was 90% and the Solubility [4] was 3.0 µg/mL (≈ 6.6 µM).

`O=[N+]([O-])c1cn2c(n1)OC[C@@H](OCc1ccc(-c3ccc(OC(F)(F)F)cc3)cn1)C2` [Compound 7, (6S)-2-Nitro-6-({5-[4-(trifluoromethoxy)phenyl]-2-pyridinyl}methoxy)-6,7-dihydro-5H-imidazo[2,1-b][1,3]oxazine] gave an AUC lung [1] of 427 µg·h/mL, a Cmax [1] of 25900 ng/mL and a melting point of 157 to 159 °C.

`O=[N+]([O-])c1cn2c(n1)OC[C@@H](OCc1ccc(C#Cc3ccc(OC(F)(F)F)cc3)cn1)C2` [Compound 18, (6S)-2-Nitro-6-[(5-{[4-(trifluoromethoxy)phenyl]ethynyl}-2-pyridinyl)methoxy]-6,7-dihydro-5H-imidazo[2,1-b][1,3]oxazine] showed an AUC lung [1] of 235 µg·h/mL, a Cmax [1] of 2360 ng/mL and a half-life [1] of 23.5 h. It also gave a Kp [1] of 2.5, a melting point of 207 to 208 °C and a solubility at 15 min [4] of 0.36 µg/mL (≈ 0.782 µM).

`O=[N+]([O-])c1cn2c(n1)OC[C@@H](OCc1ccn(-c3ccc(OC(F)(F)F)cc3)n1)C2` [Compound 10, (6S)-2-Nitro-6-({1-[4-(trifluoromethoxy)phenyl]-1H-pyrazol-3-yl}methoxy)-6,7-dihydro-5H-imidazo[2,1-b][1,3]oxazine] showed an AUC lung [1] of 31.5 µg·h/mL, a Cmax [1] of 1510 ng/mL and a half-life [1] of 2.4 h. The Kp [1] was 3.5, the “Microsomes (% remaining, 1 h) Human” value [2] was 87% and the melting point was 103 to 105 °C. For the same molecule, the “Microsomes (% remaining, 1 h) Mouse” value [3] was 67%.

With `O=[N+]([O-])c1cn2c(n1)OC[C@@H](OCc1ccc(-c3ccc(F)cn3)cc1)C2` [Compound 26, (6S)-6-{[4-(5-Fluoro-2-pyridinyl)benzyl]oxy}-2-nitro-6,7-dihydro-5H-imidazo[2,1-b][1,3]oxazine] the “Microsomes (% remaining, 1 h) Human” value [2] was 83%, the melting point was 180 to 181 °C and the “Microsomes (% remaining, 1 h) Mouse” value [3] was 61%. For the same molecule, the Solubility [4] was 67 µg/mL (≈ 181 µM).

With `O=[N+]([O-])c1cn2c(n1)OC[C@@H](OCc1cnn(-c3ccc(OC(F)(F)F)cc3)c1)C2` [Compound 27, (6S)-2-Nitro-6-({1-[4-(trifluoromethoxy)phenyl]-1H-pyrazol-4-yl}methoxy)-6,7-dihydro-5H-imidazo[2,1-b][1,3]oxazine] the “Microsomes (% remaining, 1 h) Human” value [2] was 87%, the melting point was 150 to 151 °C and the “Microsomes (% remaining, 1 h) Mouse” value [3] was 64%.

Work on `O=[N+]([O-])c1cn2c(n1)OC[C@@H](OCc1ccc(C#Cc3ccc(OC(F)(F)F)cc3)cc1)C2` [Compound 32, (6S)-2-Nitro-6-[(4-{[4-(trifluoromethoxy)phenyl]ethynyl}benzyl)oxy]-6,7-dihydro-5H-imidazo[2,1-b][1,3]oxazine] yielded a melting point of 233 to 236 °C.

For `O=[N+]([O-])c1cn2c(n1)OC[C@@H](OCc1ccc(/C=C/c3ccc(OC(F)(F)F)cc3)cc1)C2` [Compound 31, (6S)-2-Nitro-6-[(4-{(E)-2-[4-(trifluoromethoxy)phenyl]ethenyl}benzyl)oxy]-6,7-dihydro-5H-imidazo[2,1-b][1,3]oxazine], the “Microsomes (% remaining, 1 h) Human” value [2] was 99%, the melting point was 228 to 230 °C and the “Microsomes (% remaining, 1 h) Mouse” value [3] was 98%.

For `O=[N+]([O-])c1cn2c(n1)OC[C@@H](OCc1ccc(-c3ccc(OC(F)(F)F)cc3)nc1)C2` [Compound 6, (6S)-2-Nitro-6-({6-[4-(trifluoromethoxy)phenyl]-3-pyridinyl}methoxy)-6,7-dihydro-5H-imidazo[2,1-b][1,3]oxazine], the AUC lung [1] was 81 µg·h/mL, the Cmax [1] was 12200 ng/mL and the “Microsomes (% remaining, 1 h) Human” value [2] was 83%. The “Microsomes (% remaining, 1 h) Mouse” value [3] was 87% and the Solubility [4] was 2.3 µg/mL (≈ 5.27 µM).

Work on `O=[N+]([O-])c1cn2c(n1)OC[C@@H](OCc1ccc(-c3ccc(F)cc3)nc1)C2` (hydrate or solvate) [Compound 5, (6S)-6-{[6-(4-Fluorophenyl)-3-pyridinyl]methoxy}-2-nitro-6,7-dihydro-5H-imidazo[2,1-b][1,3]oxazine] yielded a melting point of 194 to 196 °C.

Work on `O=[N+]([O-])c1cn2c(n1)OC[C@@H](OCc1ccc(-c3ccc(OC(F)(F)F)cc3)c(F)c1)C2` [Compound 15, (6S)-6-{[2-Fluoro-4′-(trifluoromethoxy)[1,1′-biphenyl]-4-yl]methoxy}-2-nitro-6,7-dihydro-5H-imidazo[2,1-b][1,3]oxazine] yielded a melting point of 181 to 183 °C and a solubility at 15 min [4] of 0.33 µg/mL (≈ 0.728 µM).

With `O=[N+]([O-])c1cn2c(n1)OC[C@@H](OCc1ccc(-c3ccc(C(F)(F)F)nc3)cc1)C2` [Compound 9, (6S)-2-Nitro-6-({4-[6-(trifluoromethyl)-3-pyridinyl]benzyl}oxy)-6,7-dihydro-5H-imidazo[2,1-b][1,3]oxazine] the AUC lung [1] was 414 µg·h/mL, the Cmax [1] was 13500 ng/mL and the Kp [1] was 1.9. The “Microsomes (% remaining, 1 h) Human” value [2] was 86%, the melting point was 221 to 222 °C and the Solubility [4] was 1.0 µg/mL (≈ 2.38 µM).

In the case of `O=[N+]([O-])c1cn2c(n1)OC[C@@H](OC/C=C/c1ccc(-c3ccc(OC(F)(F)F)cc3)cc1)C2` [Compound 19, (6S)-2-Nitro-6-({(2E)-3-[4′-(trifluoromethoxy)[1,1′-biphenyl]-4-yl]-2-propenyl}oxy)-6,7-dihydro-5H-imidazo[2,1-b][1,3]oxazine], the “Microsomes (% remaining, 1 h) Human” value [2] is reported as 100%, the melting point is reported as 220 to 221 °C and the “Microsomes (% remaining, 1 h) Mouse” value [3] is reported as 95%. The Solubility [4] was 0.50 µg/mL (≈ 1.08 µM).
